US20220296597A1, “USE OF A NEUTROPHIL ELASTASE INHIBITOR IN LUNG DISEASE” (pH Pharma Co., Ltd., priority 2019, published 2022)
Read-outs that look alike come from different tables or passages of the source.

Key:
[1] = Example 2 Phase 1 single-ascending dose study in healthy subjects; format: in vivo, human
Source text: Following Screening, subjects received single doses of study drug and were monitored during an in-clinic period and an out-patient follow-up period. Subjects were confined to the study site for Study Days −2 through 7 to collect PK and safety assessments. Following discharge from the study site on Study Day 7, subjects returned to the study site on Study Days 14, 21, 28, and 35.

[2] = Solubility of the drug substance; format: physicochemical
[3] = non-CF BE patients, 28 days, cited from earlier work
[4] = healthy subjects, cited from earlier work
[5] = Hygroscopicity of the drug substance; format: physicochemical; settings: normal storage conditions

SMILES: CC1=C(C#N)[C@@H](c2ccc(C#N)cc2S(C)(=O)=O)N(C)C(=O)N1c1cccc(C(F)(F)F)c1 [Compound 1, (4S)-4-[4-cyano-2-(methylsulfonyl)phenyl]-3,6-dimethyl-2-oxo-1-[3-(trifluoromethyl)phenyl]-1,2,3,4-tetrahydropyrimidine-5-carbonitrile]
- subjects with headache ([1]; 36 received Compound 1, single doses 1 to 40 mg): one
- AE rate compared with placebo ([1]; single doses 1 to 40 mg): somewhat lower than that in the control (placebo) subjects
- effects on laboratory safety evaluations (clinical chemistry and hematology) ([1]; single doses 1 to 40 mg): no clear effects
- exposure (AUC and Cmax) with dose ([1]; single doses 1 to 40 mg): proportional increases
- serious AEs ([1]; single doses 1 to 40 mg): no serious AEs
- solubility in acetone ([2]; acetone): soluble
- solubility in ethanol ([2]; ethanol): very slightly soluble
- solubility in water ([2]; water): practically insoluble
- safety and tolerability ([3]; 1.0 mg oral IR tablet): generally safe and well tolerated
- SAEs attributed to the drug ([3]; 1.0 mg oral): no SAEs were attributed by the investigator to the drug
- study drug-induced laboratory parameter or ECG effects ([3]; 1.0 mg oral): No safety signals
- study drug-induced laboratory or ECG abnormalities ([4]; Phase 1 studies): No safety signals
- safety and tolerability ([4]; single and repeated doses up to 1 mg for up to 14 days): safe and well tolerated
- serious adverse events ([4]; three Phase 1 studies): no serious AEs (SAEs) were reported
- hygroscopicity [5]: not hygroscopic
